Data: patent US10471080B2, “Use of trehalose for prevention of neural tube defects” (UNIVERSITY OF MARYLAND, BALTIMORE, priority 2012, dated 2019)

What was measured:
LC3-II [1] = experiment: LC3-II levels in cultured E8 embryos under high glucose with or without Chloroquine; details: high glucose 250 mg/dl, 25 μmol/L Chloroquine
NTDs = details: cited from earlier work
[2] = test system: 4-HNE, MDA, nitrotyrosine or ubiquitin-modified proteins; experiment: Levels of oxidized and ubiquitin-modified (dysfunctional) proteins in E8.75 embryos; format: in vivo, mouse; details: diabetic group with 5% trehalose
[3] = test system: maternal diabetes-induced NTDs; experiment: In vivo mouse model of diabetic embryopathy, morphologic assessment of NTDs at E11.5
Method: In vivo mouse model of diabetic embryopathy and morphologic assessment of NTDs. The mouse model of diabetic embryopathy was previously described (21, 22). Briefly, female mice were intravenously (i.v.) injected daily with 75 mg/kg streptozotocin (STZ) over two days to induce diabetes. Nondiabetic WT with vehicle injection served as controls. Diabetes was defined as 12-hour fasting blood glucose levels ≥250 mg/dl, which normally occurred at 3-5 days after STZ injections. There is no residual toxic effect caused by STZ in this animal model. Embryos were gathered at E8.75 (2:00 PM at E8.5) for analysis and at E11.5 from NTD examination.
(§1) Trehalose treatment and trehalose measurement. Concentrations of either 2% or 5% (gram/volume [ml]) trehalose (Cat#: T9531, Sigma) were given to WT nondiabetic and diabetic pregnant mice at E5.5 in drinking water. Trehalose levels in maternal serum and embryos were determined by the Trehalose Kit from Megazyme (Wicklow, Ireland).
Statistical analyses. Statistical differences were determined by Student's t-test for two group comparisons and One way ANOVA for more than two groups comparisons using SigmaStat 3.5 software. In ANOVA analysis, Tukey-test was used to estimate the significance of the results. Significant difference between groups in NTD incidence was analyzed by Chi-square test.

[4] = test system: ER stress and JNK1/2 activation; experiment: ER stress markers and JNK1/2 activation in E8.75 embryos; format: in vivo, mouse; details: diabetic group with 5% trehalose
[5] = test system: neurogenesis in the developing neural tube; experiment: Immunofluorescent staining of TuJ1 and Sox1 in developing neural tubes (neurogenesis); format: in vivo, mouse; details: neural tubes exposed to diabetes
Method: Immunofluorescent staining. […] Deparaffinized sections were incubated with TuJ 1 antibody (Covance, #MMS-435P) at 1:400 dilution or Sox1 antibody (Cell Signaling, #4194) at 1:100 dilution in PBS with 10% heat-inactivated donkey serum overnight at 4° C. After washes in PBS, sections were incubated with secondary antibodies, Alexa Fluor® 488 Donkey Anti-Mouse IgG to TuJ1, and Alexa Fluor® 594 Donkey Anti-Rabbit IgG to Sox1. Cell nuclei were stained with DAPI (Blue). Immunofluorescent staining was examined by immunofluorescence microscopy. In order to visualize neurogenesis throughout the anterior neural tube, serial sections through the entire anterior neural tube were analyzed and representative images were shown. The earliest neurogenesis site was found at the boundary of midbrain and hindbrain. Five embryos from five dams per group were analyzed.

[6] = test system: neuroepithelial cell apoptosis; experiment: Pro-apoptotic Bcl-2 members, caspase cleavage and TUNEL assay in E8.75 embryos; format: in vivo, mouse; details: diabetic group with 5% trehalose
Method: TUNEL assay. TUNEL assay was performed as previously described (21, 22). Briefly, 5-μm serial coronal sections through the forebrain-midbrain (FB-MB) boundary of the anterior neural tube were fixed with 4% PFA in PBS and incubated with TUNEL reaction agents. Closure at the FB-MB boundary is an essential step for closure of the anterior neural tube, and failed closure in this area results in exencephaly (2, 8). TUNEL-positive cells were counted in the neural tube area of each section. Based on the counting of total cell nuclei, the sizes of the neural tube areas of each section were relatively constant. Thus, apoptotic cell numbers were expressed as total TUNEL-positive cells per neural tube area. TUNEL assays were performed without the observer knowing the experimental group of the embryo examined.

neuroepithelial cells = experiment: Electron microscopy of autophagosomes and mitochondria in E8.75 neuroepithelia; format: in vivo, mouse
Text: Electron microscopy. The structures of autophagosome and mitochondria were examined by transmission electron microscopy (EM) in the University of Maryland EM core facility. Thick sections (1 μm) were cut and visualized at ×100 magnifications to identify the neuroepithelia of E8.75 embryos. Thin sections (80 nm) of identified neuroepithelia were cut and viewed with an electron microscope (Joel JEM-1200EX; Tokyo, Japan) under high-power resolution (10, 12 and 25 K) for identification of cellular organelle structures.

LC3-II [7] = experiment: LC3-II levels in E8.75 embryos; format: in vivo, mouse; details: E8.75 embryos of diabetic dams
[8] = test system: embryonic neuroepithelial cells; experiment: GFP-LC3 puncta analysis in GFP-LC3 transgenic mice; format: in vivo, mouse
Method: GFP-LC3 puncta analysis. GFP-LC3 transgenic (Tg) mice were used to quantify autophagy in vivo. E8.75 embryos were gathered, fixed in 4% paraformaldehyde (PFA) in PBS for 30 min at 4° C., quickly frozen, and cryosectioned at […] GFP florescent images in embryonic neuroepithelial cells were recorded by confocal microscopy using a laser scanning microscope (LSM 510 META, ZEISS). GFP-LC3 punctate foci with a diameter greater than or equal to 20 pixels in each cell were calculated by Image J software according to the manufacturer's manual.

[9] = Trehalose measurement in maternal serum and embryos (Trehalose Kit, Megazyme); format: in vivo, mouse; details: diabetic dams
Method: as §1

autophagy = details: in vitro; cited from earlier work
[10] = test system: ULK1, Beclin 1, Atg3, Atg5, Ambra1, p62, Dap; experiment: Autophagy-related gene expression in E8.75 embryos; format: in vivo, mouse; details: diabetic group

For `CCN(CC)CCCC(C)Nc1ccnc2cc(Cl)ccc12` (centres unmarked) [Chloroquine], the “high glucose-induced LC3-II reduction” value (LC3-II [1]) was “did not block high glucose-induced LC3-II reduction”.

For `O[C@H]1[C@H](O)[C@@H](O)[C@H](O)[C@@H](O)[C@H]1O` [inositol], the “folate-resistant NTDs” value (NTDs) is given as “can prevent some of the folate-resistant NTDs”.

With `OC[C@H]1O[C@H](O[C@H]2O[C@H](CO)[C@@H](O)[C@H](O)[C@H]2O)[C@H](O)[C@@H](O)[C@@H]1O` [trehalose] the “levels of 4-HNE, MDA, nitrotyrosine or ubiquitin-modified proteins” value [2] was “blocked maternal diabetes-increased levels of all of these modified proteins”, the “maternal diabetes-induced NTDs” value ([3]; 2% trehalose, diabetic dams, lesser extent than 5%) was “significantly reduced maternal diabetes-induced NTDs” and the NTD rate ([3]; Diabetic + 2% trehalose in drinking water from E5.5, E11.5, total NTD embryos/total embryos) was 9.8%. For the same compound, the “Resorption Rates” value ([3]; Diabetic + 2% trehalose, E11.5) was 4.7, the “Total NTD Embryos” value ([3]; Diabetic + 2% trehalose, E11.5, of 41 total embryos) was 4 and the NTD rate ([3]; Nondiabetic + 2% trehalose in drinking water from E5.5, E11.5, total NTD embryos/total embryos) was 0%. The “Resorption Rates” value ([3]; Nondiabetic + 2% trehalose, E11.5) was 4.8, the “Total NTD Embryos” value ([3]; Nondiabetic + 2% trehalose, E11.5, of 29 total embryos) was 0 and the NTD rate ([3]; embryos from diabetic dams treated with 5% trehalose water (weight/volume), calculated by litters) was 4.0±2.2%. The NTD rate ([3]; embryos from nondiabetic dams with or without trehalose treatment) was 0.0±0.0%, the Resorption Rates ([3]; nondiabetic and diabetic dams with or without trehalose treatments) was “did not differ” and the “JNK1/2 activation and downstream effector c-Jun” value [4] was “completely abolished maternal diabetes-induced JNK1/2 activation”. The “XBP1 mRNA splicing” value [4] was “diminished XBP1 mRNA splicing”, the “expression or phosphorylation of ER chaperone proteins BiP, CHOP, eIF2α” value [4] was “abrogated maternal diabetes-increased expression or phosphorylation” and the “expression of 7 ER chaperone genes” value ([4]; mRNA) was “abolished”. The “differentiation of Sox1 positive neural progenitors” value [5] was “corrected maternal diabetes-blocked differentiation of Sox1 positive neural progenitors”, the “neurogenesis (TuJ1 expressing neurons)” value ([5]; E9.0 to E10.5) was “reversed delayed neurogenesis” and the BID cleavage [6] was “prevented”. The “caspase 3 and 8 cleavage” value [6] was “abolished maternal diabetes-induced caspase 3 and 8 cleavage”, the “level of phosphorylated Bad” value [6] was “restored” and the “neuroepithelial cell apoptosis (TUNEL)” value [6] was “blocked neuroepithelial cell apoptosis”. The “number of defective mitochondria” value (neuroepithelial cells; diabetic conditions, E8.75 neuroepithelia) was “significantly reduced the number of defective mitochondria to a level comparable to that in the nondiabetic control group”, the “autophagosome formation in neuroepithelial cells” value (neuroepithelial cells; diabetic group, E8.75) was “blocked maternal diabetes-repressed autophagosome formation” and the LC3-II expression (LC3-II [7]) was “restored maternal diabetes-diminished LC3-II expression”. The “number of autophagic GFP-LC3 puncta in neuroepithelial cells” value ([8]; diabetic group treated with trehalose, E8.75) was “restored to the level of that observed in the nondiabetic groups”, the “basal autophagy activities in neuroepithelial cells” value ([8]; nondiabetic group) was “did not affect basal autophagy activities” and the embryonic trehalose levels ([9]; 2% group) was 15.8±1.0 μg/g tissue. For the same compound, the “trehalose in maternal blood” value ([9]; 2% trehalose in drinking water) was 162.0 ± 16.9 µg/mL, the embryonic trehalose levels ([9]; 5% group) was 53.9±3.7 μg/g tissue and the “trehalose in maternal blood” value ([9]; 5% trehalose in drinking water) was 503.9 ± 19.3 µg/mL. The autophagy stimulating activities (autophagy) was “possess autophagy stimulating activities in vitro”, the “expression of ULK1, Beclin 1, Atg3, Atg5, and Ambra1” value [10] was “blocked the downregulation” and the “expression of p62 and Dap” value [10] was “blocked”.
